From patent US20240226120A1 (priority 2020, published 2024)

What was measured:
[1] = test system: interferon and interferon-induced antiviral effector gene expression in cells expressing ORF8; test: qPCR of interferons and effector gene expression, ORF8; format: cell-based, human
[2] = test system: interferon and interferon-induced antiviral effector gene expression in cells expressing ORF10; test: qPCR of interferons and effector gene expression, ORF10; format: cell-based, human

Structure (SMILES): C=C(C)[C@@H]1CCC(C)=C[C@H]1c1c(O)cc(CCCCC)cc1O [Cannabidiol, 2-[(1R,6R)-3-Methyl-6-(1-methylethenyl)-2-cyclohexen-1-yl]-5-pentyl-1,3-benzenediol]
- Interferon Lambda 1 mRNA expression ([1]; ORF8, 1 μM CBD vs vehicle alone, 24 hours (FIG. 9A)): significantly increased
- extent of OAS1 augmentation compared with cells transfected with control vector ([1]; ORF8, 1 μM CBD, 24 hours): significantly higher
- INF-gamma expression ([1]; ORF8, 1 μM CBD, 24 hours, compared with effect in control cells (FIG. 9B)): greater effect
- OAS1 gene expression ([1]; ORF8, 1 μM CBD, 24 hours, relative to all other groups and treatments (FIG. 10)): highly significant increase
- induction of OAS1 ([2]; ORF10, 1 μM CBD relative to vehicle alone, 24 hours (FIG. 14)): significantly increased
- OAS1 induction compared with CBD plus control plasmid ([2]; ORF10, 1 μM CBD, 24 hours): lower
